Results from patent publication US4738971A, “N-aryl-1,2-dihydro-4-substituted-1-alkyl-2-oxo-quinoline-3-carboxamides” (priority 1981, dated 1988).
Counter-ions that a name gives are not always drawn.

Legend:
[1] = tested on: carrageenan-induced edema; assay: carrageenan edema test in rats; assay type: in vivo, rat (female Sprague-Dawley); conditions: for change in vivo at 80 mg/kg: Rattus norvegicus, po, 80 mg/kg p.o., 30 min before carrageenan, edema weight 3 h after, vs control, preliminary, read-out: Potentiation of the carrageenan edema, %; for significant potentiation of the carrageenan edema: dose within the range 10-160 mg/kg p.o.
Text: Another test, in which the effect of a drug corresponds to the effects obtained in the tests mentioned above, and which can therefore also be used, is the well-established carrageenan edema test in rats (5). Comparative evaluation of compounds of the present invention in the three tests mentioned has shown that compounds which increase the extent of the delayed hypersensitivity reaction in the pertussis vaccine pleurisy test and in the adjuvant arthritis test also increase the extent of carrageenan-induced edema in the carrageenan edema test, thus providing a further tool for the determination of enhancement of cell-mediated immunity.
This example illustrates the effect of the compounds of the general formula I in the carrageenan edema test in rats.
A modification of a method described in (5) was used. Female Sprague-Dawleyrats weighing 110-120 g was used. At least 10 animals were used in each experimental group. Foot edema was induced by injecting carrageenan in 0.9% NaCl into the plantar surface of the right hind paw of the rats.
The substances suspended in aqueous methocel solution 10 ml/kg were administered intragastrically 30 minutes before the injection of carrageenan. The control groups were given methocel solution 10 ml/kg.
Three hours after carrageenan injection the animals were killed. The hind feet were cut off and weighed. The difference in weight of the injected right paw and the uninjected left paw was called edema weight.
The effect of the substances was assessed by the edema weight expressed in percent after comparison with the control groups.

[2] = tested on: delayed hypersensitivity reaction (pertussis vaccine pleurisy); assay: pertussis vaccine pleurisy test in rats; assay type: in vivo, rat (male Sprague-Dawley); conditions: 10 mg/kg p.o.; for change in vivo at 10 mg/kg: Rattus norvegicus, po, 48 h, once daily day 10 to day 13, vs control, preliminary, read-out: Enhancement of the delayed hypersensitivity reaction assessed by the exudate vol.
Text: A useful test for the evaluation of the effect of chemical compounds on the immune system is the pertussis vaccine pleurisy test in rats. Compounds which enhance the response in this delayed hypersensitivity reaction are considered to stimulate cell-mediated immunity (4).
This example illustrates the effect of the compounds of the general formula I in the pertussis vaccine pleurisy test.
Pertussis vaccine pleurisy is a useful test for the evaluation of the effect of chemical compounds on the immune system. Compounds which enhance the response in this delayed hypersensitivity reaction are considered to stimulate cell-mediated immunity.
A modification of a method described in (4) was used. Male Sprague-Dawley rats weighing 250-275 g were used. At least ten animals were used in each group.
Equal volumes of Freund's incomplete adjuvant and a suspension of heat killed Bordetella pertussis organisms were mixed. To sensitize animals, day 0, 0.2 ml of a mixture containing 0.036×10^10 organisms/ml was injected into the dorsal surface of one hind paw and one forepaw.
The animals were challenged on day 12 with 0.1 ml of a mixture containing 0.25×10^10 organisms/ml that was injected intrapleurally. 48 hours after challenge, day 14, the volume of the exudate in the pleural cavity was measured.
The substances suspended in aqueous methocel solution 10 ml/kg were given intragastrically once daily from day 10 to day 13. The control groups were given methocel solution 10 ml/kg.
The effect of the substances was assessed by the exudate volume expressed in percent after comparison with the control groups.

CN(C)c1ccc2c(c1)c(O)c(C(=O)Nc1ccccc1)c(=O)n2C [1:5, N-phenyl-1,2-dihydro-6-dimethylamino-4-hydroxy-1-methyl-2-oxo-quinoline-3-carboxamide] showed a change in vivo at 80 mg/kg [1] of 28% and a change in vivo at 10 mg/kg [2] of 47%.

In the case of Cn1c(=O)c(C(=O)Nc2ccccc2Cl)c(O)c2ccccc21 [1:8, N-/2-chlorophenyl/-1,2-dihydro-4-hydroxy-1-methyl-2-oxo-quinoline-3-carboxamide], the change in vivo at 80 mg/kg [1] is reported as 21% and the change in vivo at 10 mg/kg [2] is reported as 27%.

With CC(=O)Nc1ccc(NC(=O)c2c(O)c3ccccc3n(C)c2=O)cc1 [1:41, N-(4-acetylaminophenyl)-1,2-dihydro-4-hydroxy-1-methyl-2-oxo-quinoline-3-carboxamide] the “significant potentiation of the carrageenan edema” value (“significant potentiation” for short) [1] was “potentiate significantly” and the “significant enhancing effect in the pertussis vaccine pleurisy test” value [2] was “significant enhancing effect”.

In the case of CCNc1ccc(NC(=O)c2c(O)c3ccccc3n(C)c2=O)cc1 [1:45, N-(4-ethylaminophenyl)-1,2-dihydro-4-hydroxy-1-methyl-2-oxo-quinoline-3-carboxamide], the change in vivo at 80 mg/kg [1] is reported as 47%.

In the case of Cc1ccc2c(c1)c(O)c(C(=O)Nc1ccccc1)c(=O)n2C [1:46, N-phenyl-1,2-dihydro-1,6-dimethyl-4-hydroxy-2-oxo-quinoline-3-carboxamide], the change in vivo at 80 mg/kg [1] is reported as 32%.

With COc1c(C(=O)Nc2ccc(N(C)C)cc2)c(=O)n(C)c2ccccc12 [6:3, N-(4-dimethylaminophenyl)-1,2-dihydro-4-methoxy-1-methyl-2-oxo-quinoline-3-carboxamide] the change in vivo at 80 mg/kg [1] was 32%.

Work on Cn1c(=O)c(C(=O)Nc2ccccn2)c(O)c2ccccc21 [7:2, N-/2-pyridyl/-1,2-dihydro-4-hydroxy-1-methyl-2-oxo-quinoline-3-carboxamide] yielded a change in vivo at 80 mg/kg [1] of 44%.

Molecule Cc1csc(NC(=O)c2c(O)c3ccccc3n(C)c2=O)n1 [7:3, N-/2-(4-methyl-thiazolyl)/-1,2-dihydro-4-hydroxy-1-methyl-2-oxo-quinoline-3-carboxamide] has a change in vivo at 80 mg/kg [1] of 47%.

CCCn1c(=O)c(C(=O)Nc2ccccn2)c(O)c2ccccc21 [7:10, N-/2-pyridyl/-1,2-dihydro-4-hydroxy-2-oxo-1-n-propyl-quinoline-3-carboxamide] was tested, and the change in vivo at 80 mg/kg [1] was 24% and the change in vivo at 10 mg/kg [2] was 41%.

In the case of Cn1c(=O)c(C(=O)Nc2ccc(N)cc2)c(O)c2ccccc21 [8:1, N-(4-aminophenyl)-1,2-dihydro-4-hydroxy-1-methyl-2-oxo-quinoline-3-carboxamide], the “significant potentiation” value [1] is reported as “potentiate significantly”.

For Cn1c(=O)c(C(=O)Nc2ccccc2)c(N)c2ccccc21 [10:1, N-phenyl-4-amino-1,2-dihydro-1-methyl-2-oxo-quinoline-3-carboxamide], the change in vivo at 80 mg/kg [1] was 36%.

Cn1c(=N)c(C(=O)Nc2ccccc2)c(O)c2ccccc21 [11:1, N-phenyl-1,2-dihydro-4-hydroxy-2-imino-1-methyl-quinoline-3-carboxamide] was tested, and the change in vivo at 80 mg/kg [1] was 46%.

In the case of O=C(Nc1ccc(N2CCCC2)cc1)c1c(O)c2cccc3c2n(c1=O)CC3 [12:7, N-(4-pyrrolidinophenyl)-1,2-dihydro-1,8-ethylene-4-hydroxy-2-oxo-quinoline-3-carboxamide, hydrochloride], the “significant potentiation” value [1] is reported as “potentiate significantly” and the “significant enhancing effect in the pertussis vaccine pleurisy test” value [2] is reported as “significant enhancing effect”.

Molecule CN(C)c1ccc(NC(=O)c2c(O)c3cccc4c3n(c2=O)CC4)cc1 [12:8, N-(4-dimethylaminophenyl)-1,2-dihydro-1,8-ethylene-4-hydroxy-2-oxo-quinoline-3-carboxamide] has a change in vivo at 80 mg/kg [1] of 51% and a change in vivo at 10 mg/kg [2] of 29%.

Cc1csc(NC(=O)c2c(O)c3cc(N(C)C)cc4c3n(c2=O)CCC4)n1 [14:7, N-(4-methyl-2-thiazolyl)-1,2-dihydro-6-dimethylamino-4-hydroxy-2-oxo-1,8-trimethylene-quinoline-3-carboxamide] was tested, and the “significant potentiation” value [1] was “potentiate significantly”.

Molecule O=C(Nc1cnccn1)c1c(O)c2cccc3c2n(c1=O)CC3 [14:9, N-pyrazinyl-1,2-dihydro-1,8-ethylene-4-hydroxy-2-oxo-quinoline-3-carboxamide] has a change in vivo at 80 mg/kg [1] of 21%.

For O=C(Nc1cccnn1)c1c(O)c2cc(O)cc3c2n(c1=O)CC3 [14:12, N-(3-pyridazinyl)-1,2-dihydro-4,6-dihydroxy-1,8-ethylene-2-oxo-quinoline-3-carboxamide], the “significant potentiation” value [1] was “potentiate significantly”.

COc1c(C(=O)Nc2nccs2)c(=O)n2c3c(cccc13)CC2 [16:1, N-(2-thiazolyl)-1,2-dihydro-1,8-ethylene-4-methoxy-2-oxo-quinoline-3-carboxamide] was tested, and the “significant potentiation” value [1] was “potentiate significantly”.

With COc1c(C(=O)Nc2nccs2)c(=O)n(C)c2ccccc12 [17:1, N-(2-thiazolyl)-1,2-dihydro-4-methoxy-1-methyl-2-oxo-quinoline-3-carboxamide] the “significant potentiation” value [1] was “potentiate significantly”.

COc1c(C(=O)Nc2ccccc2)c(=O)n2c3c(cccc13)CC2 [18:1, N-phenyl-1,2-dihydro-1,8-ethylene-4-methoxy-2-oxo-quinoline-3-carboxamide] was tested, and the “significant potentiation” value [1] was “potentiate significantly”.

For COc1c(C(=O)Nc2ccccc2)c(=O)n2c3c(cccc13)CCC2 [18:2, N-phenyl-1,2-dihydro-4-methoxy-2-oxo-1,8-trimethylene-quinoline-3-carboxamide], the “significant potentiation” value [1] was “potentiate significantly”.

For CCOc1c(C(=O)Nc2ccc(N(C)C)cc2)c(=O)n2c3c(cccc13)CC2 [18:3, N-(4-dimethylaminophenyl)-1,2-dihydro-4-ethoxy-1,8-ethylene-2-oxo-quinoline-3-carboxamide], the “significant potentiation” value [1] was “potentiate significantly”.

COc1ccc2c(c1)c(O)c(C(=O)N(C)c1ccccc1)c(=O)n2C [20:5, N-methyl-N-phenyl-1,2-dihydro-4-hydroxy-6-methoxy-1-methyl-2-oxo-quinoline-3-carboxamide] was tested, and the “significant potentiation” value [1] was “potentiate significantly” and the “significant enhancing effect in the pertussis vaccine pleurisy test” value [2] was “significant enhancing effect”.

CN(C(=O)c1c(O)c2ccccc2n(C)c1=O)c1ccc(N2CCCCC2)cc1 [20:9, N-(4-piperidinophenyl)-N-methyl-1,2-dihydro-4-hydroxy-1-methyl-2-oxo-quinoline-3-carboxamide] was tested, and the “significant potentiation” value [1] was “potentiate significantly” and the “significant enhancing effect in the pertussis vaccine pleurisy test” value [2] was “significant enhancing effect”.

CCn1c(=O)c(C(=O)N(C)c2ccccc2)c(O)c2ccccc21 [20:10, N-methyl-N-phenyl-1,2-dihydro-1-ethyl-4-hydroxy-2-oxo-quinoline-3-carboxamide] was tested, and the “significant potentiation” value [1] was “potentiate significantly” and the “significant enhancing effect in the pertussis vaccine pleurisy test” value [2] was “significant enhancing effect”.

In the case of CN(C(=O)c1c(O)c2c(F)cccc2n(C)c1=O)c1ccccc1 [20:16, N-methyl-N-phenyl-1,2-dihydro-5-fluoro-4-hydroxy-1-methyl-2-oxo-quinoline-3-carboxamide], the “significant potentiation” value [1] is reported as “potentiate significantly” and the “significant enhancing effect in the pertussis vaccine pleurisy test” value [2] is reported as “significant enhancing effect”.

In the case of CN(C(=O)c1c(O)c2ccccc2n(C)c1=O)c1ccc2c(c1)OCO2 [20:29, N-methyl-N-(3,4-methylenedioxyphenyl)-1,2-dihydro-4-hydroxy-1-methyl-2-oxo-quinoline-3-carboxamide], the “significant potentiation” value [1] is reported as “potentiate significantly” and the “significant enhancing effect in the pertussis vaccine pleurisy test” value [2] is reported as “significant enhancing effect”.
